{"source": "PubChem BioAssay AID330", "about": "(DTP/NCI, 2004)", "test_system": "P388 leukemia ip, CD2F1 mice, survival T/C", "assay": "NCI In Vivo Anticancer Drug Screen. Data for tumor model P388 Leukemia (intraperitoneal) in CD2F1 (CDF1) mice", "conditions": "endpoint: median survival time, higher = longer survival", "protocol": "The antitumor activity of compounds was measured in mice bearing transplantable tumors. Survival or tumor size were measured and the results are expressed as the measurement made in the treated group (T) divided by the measurement made in the vehicle treated control group (C). The tumor model used in this assay is P388 Leukemia (intraperitoneal) in CD2F1 (CDF1) mice", "key": {"[1]": {"conditions": "dose: 25.0 mg/kg/injection, schedule: Q01DX009 (ip), vehicle: saline"}, "[2]": {"conditions": "dose: 50.0 mg/kg/injection, schedule: Q01DX009 (ip), vehicle: saline"}, "[3]": {"conditions": "dose: 100.0 mg/kg/injection, schedule: Q04DX002 (ip), vehicle: saline with Tween-80"}, "[4]": {"conditions": "dose: 200.0 mg/kg/injection, schedule: Q04DX002 (ip), vehicle: saline with Tween-80"}}, "note": "Several values for one entry are separate records, joined by “and”; a condition that tells them apart may be missing. Equal values may be shown once. Inconclusive results and toxic doses are left out.", "data": [{"smiles": "NC(Cc1cccc2ccccc12)C(=O)O", "note": "(centres undefined)", "values": [{"measurement": "T/C", "setting": "dose: 12.5 mg/kg/injection, schedule: Q01DX005 (ip), vehicle: Klucel (hydroxypropylcellulose) (HPC)", "value": "93 % of control"}, {"measurement": "T/C", "setting": "dose: 25.0 mg/kg/injection, schedule: Q01DX005 (ip), vehicle: Klucel (hydroxypropylcellulose) (HPC)", "value": "100 % of control"}, {"measurement": "T/C", "setting": "dose: 50.0 mg/kg/injection, schedule: Q01DX005 (ip), vehicle: Klucel (hydroxypropylcellulose) (HPC)", "value": "102 % of control and 110 % of control"}]}, {"smiles": "c1ccc(Cn2cc(CCc3ccncc3)c3ccccc32)cc1", "values": [{"measurement": "T/C", "setting": "[1]", "value": "100 % of control"}, {"measurement": "T/C", "setting": "[2]", "value": "100 % of control"}, {"measurement": "T/C", "setting": "dose: 100.0 mg/kg/injection, schedule: Q01DX009 (ip), vehicle: saline", "value": "100 % of control"}]}, {"smiles": "CCOP(=S)(Nc1ccc(F)cc1F)OCC", "values": [{"measurement": "T/C", "setting": "[3]", "value": "113 % of control"}, {"measurement": "T/C", "setting": "[4]", "value": "95 % of control"}]}, {"smiles": "Cc1c(CCl)cc([N+](=O)[O-])cc1CCl", "values": [{"measurement": "T/C", "setting": "dose: 6.25 mg/kg/injection, schedule: Q01DX009 (ip), vehicle: Klucel (hydroxypropylcellulose) (HPC)", "value": "99 % of control"}, {"measurement": "T/C", "setting": "dose: 12.5 mg/kg/injection, schedule: Q01DX009 (ip), vehicle: Klucel (hydroxypropylcellulose) (HPC)", "value": "112 % of control and 114 % of control (2×)"}, {"measurement": "T/C", "setting": "dose: 25.0 mg/kg/injection, schedule: Q01DX009 (ip), vehicle: Klucel (hydroxypropylcellulose) (HPC)", "value": "116 % of control and 117 % of control and 120 % of control"}, {"measurement": "T/C", "setting": "dose: 50.0 mg/kg/injection, schedule: Q01DX009 (ip), vehicle: Klucel (hydroxypropylcellulose) (HPC)", "value": "114 % of control and 117 % of control"}]}, {"smiles": "O=S1(=O)C2C=CC1CCCC2", "values": [{"measurement": "T/C", "setting": "dose: 12.5 mg/kg/injection, schedule: Q01DX009 (ip), vehicle: saline", "value": "95 % of control"}, {"measurement": "T/C", "setting": "[1]", "value": "90 % of control"}, {"measurement": "T/C", "setting": "[2]", "value": "92 % of control and 96 % of control"}]}, {"smiles": "CCOC(=O)/C=C/CC1CCNC1", "note": "(centres undefined)", "values": [{"measurement": "T/C", "setting": "dose: 60.0 mg/kg/injection, schedule: Q01DX005 (ip), vehicle: saline", "value": "100 % of control"}, {"measurement": "T/C", "setting": "dose: 120.0 mg/kg/injection, schedule: Q01DX005 (ip), vehicle: saline", "value": "100 % of control"}, {"measurement": "T/C", "setting": "dose: 240.0 mg/kg/injection, schedule: Q01DX005 (ip), vehicle: saline", "value": "106 % of control"}]}, {"smiles": "CC1=C(C)C(=O)C(C(C)(C)CC(=O)Sc2ncnc3nc[nH]c23)=C(C)C1=O", "values": [{"measurement": "T/C", "setting": "[3]", "value": "97 % of control"}, {"measurement": "T/C", "setting": "[4]", "value": "99 % of control"}]}, {"smiles": "COc1cccc2c1C(=O)c1c(O)c3c(c(O)c1C2=O)C[C@@](O)(C(=O)COS(=O)(=O)c1ccc(C)cc1)C[C@@H]3OC1CC(N)C(O)C(C)O1", "note": "(some centres undefined)", "values": [{"measurement": "T/C", "setting": "dose: 0.78 mg/kg/injection, schedule: Q01DX009 (ip), vehicle: water", "value": "164 % of control"}, {"measurement": "T/C", "setting": "dose: 1.56 mg/kg/injection, schedule: Q01DX009 (ip), vehicle: water", "value": "161 % of control"}, {"measurement": "T/C", "setting": "dose: 3.13 mg/kg/injection, schedule: Q01DX009 (ip), vehicle: water", "value": "158 % of control and 161 % of control"}, {"measurement": "T/C", "setting": "dose: 6.25 mg/kg/injection, schedule: Q01DX009 (ip), vehicle: water", "value": "155 % of control and 180 % of control"}, {"measurement": "T/C", "setting": "dose: 12.5 mg/kg/injection, schedule: Q01DX009 (ip), vehicle: water", "value": "89 % of control"}]}, {"smiles": "Cc1[nH]c2ccc(N(C)C)cc2c(=O)c1CNCc1ccccc1", "values": [{"measurement": "T/C", "setting": "dose: 1.56 mg/kg/injection, schedule: Q01DX009 (ip), vehicle: saline with Tween-80", "value": "114 % of control"}, {"measurement": "T/C", "setting": "dose: 3.13 mg/kg/injection, schedule: Q01DX009 (ip), vehicle: saline with Tween-80", "value": "107 % of control"}, {"measurement": "T/C", "setting": "dose: 6.25 mg/kg/injection, schedule: Q01DX009 (ip), vehicle: saline with Tween-80", "value": "103 % of control and 96 % of control"}]}, {"smiles": "COc1ccc(-c2csc(N)n2)cc1OC", "values": [{"measurement": "T/C", "setting": "dose: 100.0 mg/kg/injection, schedule: Q04DX003 (ip), vehicle: Klucel (hydroxypropylcellulose) (HPC)", "value": "98 % of control"}, {"measurement": "T/C", "setting": "dose: 200.0 mg/kg/injection, schedule: Q04DX003 (ip), vehicle: Klucel (hydroxypropylcellulose) (HPC)", "value": "101 % of control"}, {"measurement": "T/C", "setting": "dose: 400.0 mg/kg/injection, schedule: Q04DX003 (ip), vehicle: Klucel (hydroxypropylcellulose) (HPC)", "value": "102 % of control"}]}, {"smiles": "CCN(CC)CCCSCCCNc1cc(OC)cc2cccnc12", "values": [{"measurement": "T/C", "setting": "dose: 12.5 mg/kg/injection, schedule: Q01DX005 (ip), vehicle: saline", "value": "105 % of control"}, {"measurement": "T/C", "setting": "dose: 25.0 mg/kg/injection, schedule: Q01DX005 (ip), vehicle: saline", "value": "100 % of control"}, {"measurement": "T/C", "setting": "dose: 50.0 mg/kg/injection, schedule: Q01DX005 (ip), vehicle: saline", "value": "99 % of control and 91 % of control"}]}, {"smiles": "C[S+](C)c1ccccc1NC(C)(C)C", "values": [{"measurement": "T/C", "setting": "dose: 6.25 mg/kg/injection, schedule: Q01DX009 (ip), vehicle: saline + alcohol", "value": "99 % of control"}, {"measurement": "T/C", "setting": "dose: 12.5 mg/kg/injection, schedule: Q01DX009 (ip), vehicle: saline + alcohol", "value": "100 % of control"}, {"measurement": "T/C", "setting": "dose: 25.0 mg/kg/injection, schedule: Q01DX009 (ip), vehicle: saline + alcohol", "value": "96 % of control"}, {"measurement": "T/C", "setting": "[1]", "value": "101 % of control"}]}, {"smiles": "c1ccc(CN2CO[C@@H]3CCCCC[C@H]32)cc1", "values": [{"measurement": "T/C", "setting": "dose: 100.0 mg/kg/injection, schedule: Q01DX001 (ip), vehicle: Klucel (hydroxypropylcellulose) (HPC)", "value": "101 % of control"}, {"measurement": "T/C", "setting": "dose: 100.0 mg/kg/injection, schedule: Q04DX002 (ip), vehicle: Klucel (hydroxypropylcellulose) (HPC)", "value": "99 % of control"}, {"measurement": "T/C", "setting": "dose: 200.0 mg/kg/injection, schedule: Q01DX001 (ip), vehicle: Klucel (hydroxypropylcellulose) (HPC)", "value": "102 % of control"}, {"measurement": "T/C", "setting": "dose: 200.0 mg/kg/injection, schedule: Q04DX002 (ip), vehicle: Klucel (hydroxypropylcellulose) (HPC)", "value": "115 % of control"}, {"measurement": "T/C", "setting": "dose: 400.0 mg/kg/injection, schedule: Q01DX001 (ip), vehicle: Klucel (hydroxypropylcellulose) (HPC)", "value": "98 % of control"}, {"measurement": "T/C", "setting": "dose: 400.0 mg/kg/injection, schedule: Q04DX002 (ip), vehicle: Klucel (hydroxypropylcellulose) (HPC)", "value": "124 % of control"}]}]}
